Data as given in patent publication US20170209468A1, “POLY(BETA-AMINO ESTER) CONJUGATES FOR CARTILAGE AGENT DELIVERY AND METHODS” (University College Cardiff Consultants Limited, priority 2014, published 2017).

Tested on: chondrocytes
Test: Viability of chondrocytes after exposure (MTT and LDH assays)
Type: cell-based, bovine
Conditions: 15 μl of DEX 4 mg/ml solution per 1 ml well, up to 3 days
Procedure: The cartilage samples as described in Example 4 underwent a 1 hour predigestion stage with 0.4% w/v pronase (Sigma, UK), dissolved in 4-(2-hydroxyethyl)-1-piperazineethanesulfonic acid (HEPES)-buffered DMEM (Gibco, UK) supplemented with 50 U/50 mg/mL penicillin-streptomycin (Sigma Aldrich) and 2.5 mg/mL amphotericin B. Cartilages samples were placed in sterile eppendorfs containing the filter-sterilized enzyme solution by passage through a […] filter at a concentration of 1 ml solution for 5 cartilage extracts. The samples were incubated at 37° C. and the cartilage fragments were then washed twice with sterile PBS and digested with 1 ml each 6 cartilage sample of collagenase II (Sigma, UK) 0.1% w/v for 16 h at 37° C. Collagenase II was prepared in 4-(2-hydroxyethyl)-1-piperazineethanesulfonic acid (HEPES)-buffered DMEM (Gibco, UK) supplemented with 50 U/50 mg/mL penicillin-streptomycin (Sigma Aldrich and filter sterilised. […]
Chondrocytes viability was assessed through MTT and LDH assay kits (Sigma, UK) according to manufacturer's protocols. […]

C[C@@H]1C[C@H]2[C@@H]3CCC4=CC(=O)C=C[C@]4(C)[C@@]3(F)[C@@H](O)C[C@]2(C)[C@@]1(O)C(=O)COP(=O)(O)O [DEX-P, dexamethasone phosphate]
chondrocytes viability (MTT and LDH): same viability
